Assay results as given in patent US10941157B2, “Pesticidal compositions and uses thereof” (Gilead Apollo, LLC, priority 2015, dated 2021).
Values after ≈ are worked out from the molar mass of the structure shown. Read-outs that look alike come from different tables or passages of the source.

Columns and labels:
Assay type in all cases: cell-based
[1] = test system: Phytophthora capsici (Pc); experiment: In vitro pathogen growth inhibition assay, Pc; conditions: 48 h
Method: (§1) A growth inhibition assay was conducted to determine the ability of compounds to control the growth of fungal pathogens, such as Botrtyis cinerea (Bc), Collectotrichum graminicola (Cg), Diplodia maydis (Dm), Fusarium moniliforme (Fm), Fusarium virguliforme (Fv), Phytophthora capsici (Pc), Rhizoctonia solani (Rs), and Septoria tritici (St). The compounds listed in Table 1 were each dissolved in DMSO at 2.5 mg/ml to produce compound stock solutions (“stocks”). […] Negative controls on each plate included 2% DMSO, water, and a blank (media+2% DMSO). Fungal spores were isolated from previously sub-cultured plates of Botrtyis cinerea (Bc), Collectotrichum graminicola (Cg), Diplodia maydis (Dm), Fusarium moniliforme (Fm), Fusarium virguliforme (Fv), Phytophthora capsici (Pc), and Septoria tritici (St). The isolated spores were diluted to individual concentrations with a 17% V8 liquid media. For Rhizoctonia solani (Rs), 1.5 mm mycelial plugs were used in place of spores and ¼ Potato Dextrose Broth (PDB) was used for dilution. The spore concentrations and plug sizes were based on growth curves generated at 48 hours for each pathogen. In a second 96-well plate, the spores or mycelial plugs, media, diluted compound solutions, and controls were combined. Once the compound was added, a true final concentration of compound in each well was measured by an OD600 reading, which adjusted for any compound precipitation that might have occurred in the well. Plate readings were repeated at both 24 and 48 hours. The blank negative control was used as a background subtraction. Additional visual ratings were performed at both 24 and 48 hours for checking on precipitation and confirming efficacy. […] Both tables list the concentration of each compound that was sufficient to ≥90% inhibition of growth for each of the fungal pathogens listed above. In addition, some of compounds were tested in a yeast growth inhibition assay for Saccharomyces cerevisiae (Sc). Table 2 lists the concentration of the tested compound that was sufficient to ≥75% inhibition of Saccharomyces cerevisiae (Sc).

[2] = test system: Rhizoctonia solani (Rs); experiment: In vitro pathogen growth inhibition assay, Rs (mycelial plugs); conditions: Rhizoctonia solani, 48 h
Method: as §1

[3] = test system: Diplodia maydis (Dm); experiment: In vitro pathogen growth inhibition assay, Dm; conditions: Stenocarpella maydis, 48 h
Method: as §1

[4] = test system: Botrtyis cinerea (Bc); experiment: In vitro pathogen growth inhibition assay, Bc; conditions: 48 h
Method: as §1

[5] = test system: Fusarium virguliforme (Fv); experiment: In vitro pathogen growth inhibition assay, Fv
Method: as §1

[6] = test system: Septoria tritici (St); experiment: In vitro pathogen growth inhibition assay, St; conditions: Zymoseptoria tritici, 48 h
Method: as §1

[7] = test system: Collectotrichum graminicola (Cg); experiment: In vitro pathogen growth inhibition assay, Cg; conditions: 48 h
Method: as §1

[8] = test system: Fusarium moniliforme (Fm); experiment: In vitro pathogen growth inhibition assay, Fm; conditions: Fusarium verticillioides
Method: as §1

[9] = ≥90% growth inhibition, 48 hours, vs 2% DMSO control, read-out: Compound Concentration (ppm) sufficient for ≥90% inhibition of Pc
[10] = ≥90% growth inhibition, mycelial plugs, 48 hours, vs 2% DMSO control, read-out: Compound Concentration (ppm) sufficient for ≥90% inhibition of Rs
[11] = ≥90% growth inhibition, 48 hours, vs 2% DMSO control, read-out: Compound Concentration (ppm) sufficient for ≥90% inhibition of Dm
[12] = ≥90% growth inhibition, 48 hours, vs 2% DMSO control, read-out: Compound Concentration (ppm) sufficient for ≥90% inhibition of Bc
[13] = ≥90% growth inhibition, 48 hours, vs 2% DMSO control, read-out: Compound Concentration (ppm) sufficient for ≥90% inhibition of Fv
[14] = ≥90% growth inhibition, 48 hours, vs 2% DMSO control, read-out: Compound Concentration (ppm) sufficient for ≥90% inhibition of St
[15] = ≥90% growth inhibition, 48 hours, vs 2% DMSO control, read-out: Compound Concentration (ppm) sufficient for ≥90% inhibition of Cg
[16] = ≥90% growth inhibition, 48 hours, vs 2% DMSO control, read-out: Compound Concentration (ppm) sufficient for ≥90% inhibition of Fm
[17] = ≥90% inhibition, 48 hours vs 2% DMSO control, read-out: Compound Concentration (ppm) sufficient for ≥90% inhibition of growth, Pc
[18] = ≥90% inhibition, mycelial plugs, 48 hours vs 2% DMSO control, read-out: Compound Concentration (ppm) sufficient for ≥90% inhibition of growth, Rs
[19] = ≥90% inhibition, 48 hours vs 2% DMSO control, read-out: Compound Concentration (ppm) sufficient for ≥90% inhibition of growth, Dm
[20] = ≥90% inhibition, 48 hours vs 2% DMSO control, read-out: Compound Concentration (ppm) sufficient for ≥90% inhibition of growth, Bc
[21] = ≥90% inhibition, 48 hours vs 2% DMSO control, read-out: Compound Concentration (ppm) sufficient for ≥90% inhibition of growth, Fv
[22] = ≥90% inhibition, 48 hours vs 2% DMSO control, read-out: Compound Concentration (ppm) sufficient for ≥90% inhibition of growth, St
[23] = ≥90% inhibition, 48 hours vs 2% DMSO control, read-out: Compound Concentration (ppm) sufficient for ≥90% inhibition of growth, Cg
[24] = ≥90% inhibition, 48 hours vs 2% DMSO control, read-out: Compound Concentration (ppm) sufficient for ≥90% inhibition of growth, Fm
[25] = concentration sufficient to ≥90% inhibition of growth, 48 hours vs 2% DMSO control, read-out: Compound Concentration (ppm) for ≥90% inhibition, Pc
[26] = concentration sufficient to ≥90% inhibition of growth, 48 hours vs 2% DMSO control, read-out: Compound Concentration (ppm) for ≥90% inhibition, Rs
[27] = concentration sufficient to ≥90% inhibition of growth, 48 hours vs 2% DMSO control, read-out: Compound Concentration (ppm) for ≥90% inhibition, Dm
[28] = concentration sufficient to ≥90% inhibition of growth, 48 hours vs 2% DMSO control, read-out: Compound Concentration (ppm) for ≥90% inhibition, Bc
[29] = concentration sufficient to ≥90% inhibition of growth, 48 hours vs 2% DMSO control, read-out: Compound Concentration (ppm) for ≥90% inhibition, Fv
[30] = concentration sufficient to ≥90% inhibition of growth, 48 hours vs 2% DMSO control, read-out: Compound Concentration (ppm) for ≥90% inhibition, St
[31] = concentration sufficient to ≥90% inhibition of growth, 48 hours vs 2% DMSO control, read-out: Compound Concentration (ppm) for ≥90% inhibition, Cg
[32] = concentration sufficient to ≥90% inhibition of growth, 48 hours vs 2% DMSO control, read-out: Compound Concentration (ppm) for ≥90% inhibition, Fm

| Compound | IC90 [1, 9] [µg/mL] | IC90 [2, 10] [µg/mL] | IC90 [3, 11] [µg/mL] | IC90 [4, 12] [µg/mL] | IC90 [5, 13] [µg/mL] | IC90 [6, 14] [µg/mL] | IC90 [7, 15] [µg/mL] | IC90 [8, 16] [µg/mL] | IC90 [1, 17] [µg/mL] | IC90 [2, 18] [µg/mL] | IC90 [3, 19] [µg/mL] | IC90 [4, 20] [µg/mL] | IC90 [5, 21] [µg/mL] | IC90 [6, 22] [µg/mL] | IC90 [7, 23] [µg/mL] | IC90 [8, 24] [µg/mL] | also measured |
| --- | --- | --- | --- | --- | --- | --- | --- | --- | --- | --- | --- | --- | --- | --- | --- | --- | --- |
| COCCO[C@@H](Cn1c(=O)n(C(C)(C)C(=O)NC2CCC2)c(=O)c2c(C)c(-n3cccn3)sc21)c1cc(F)ccc1OC [Compound I-299] | > 50 | 50 (≈ 81.5 µM) | 50 (≈ 81.5 µM) | 2 (≈ 3.26 µM) | 2 (≈ 3.26 µM) | > 50 | 10 (≈ 16.3 µM) | 0.4 (≈ 0.652 µM) | – | – | – | – | – | – | – | – | – |
| COCCO[C@@H](Cn1c(=O)n(CC(=O)N2CCCC2)c(=O)c2c(C)c(-n3nccn3)sc21)c1cc(F)ccc1OC [Compound I-141] | – | – | – | – | – | – | – | – | > 50 | 10 (≈ 17 µM) | 2 (≈ 3.41 µM) | 2 (≈ 3.41 µM) | ≥ 2 | > 50 | ≥ 2 | 0.4 (≈ 0.682 µM) | – |
| COc1ccc(F)cc1[C@H](Cn1c(=O)n(C(C)(C)C(=O)NC(C)C)c(=O)c2c(C)c(-n3nccn3)sc21)OCCC(N)=O [Compound I-142] | – | – | – | – | – | – | – | – | ≥ 50 | 2 (≈ 3.25 µM) | 50 (≈ 81.2 µM) | 2 (≈ 3.25 µM) | 0.4 (≈ 0.65 µM) | > 50 | 10 (≈ 16.2 µM) | 0.4 (≈ 0.65 µM) | – |
| CCOC(=O)c1sc2c(c1C)c(=O)n(C(C)(C)C(=O)NC(C)C)c(=O)n2C[C@H](OCC(C)(C)C#N)c1ccccc1OC [Compound I-303] | > 50 | 2 (≈ 3.26 µM) | ≥ 2 | 0.4 (≈ 0.653 µM) | 2 (≈ 3.26 µM) | > 50 | 2 (≈ 3.26 µM) | 0.08 (≈ 0.131 µM) | – | – | – | – | – | – | – | – | – |
| COc1ccc(F)cc1[C@H](Cn1c(=O)n(C(C)(C)C(=O)NC(C)C)c(=O)c2c(C)c(-n3nccn3)sc21)OCCCO [Compound I-319] | > 50 | > 50 | > 50 | 50 (≈ 83 µM) | 10 (≈ 16.6 µM) | > 50 | > 50 | 2 (≈ 3.32 µM) | – | – | – | – | – | – | – | – | – |
| COc1ccc(F)cc1[C@H](Cn1c(=O)n(C(C)(C)C(=O)N2CCCC2)c(=O)c2c(C)c(-n3nccn3)sc21)OC1CCOCC1 [Compound I-037] | – | – | – | – | – | – | – | – | 10 (≈ 15.6 µM) | 0.08 (≈ 0.125 µM) | ≥ 0.08 | ≥ 0.4 | 0.4 (≈ 0.624 µM) | ≥ 2 | ≥ 0.08 | 0.08 (≈ 0.125 µM) | – |
| CCNC(=O)C(C)(C)n1c(=O)c2c(C)c(-n3nccn3)sc2n(C[C@@H](OC(C)=O)c2cc(F)ccc2OC)c1=O [Compound I-318] | – | – | – | – | – | – | – | – | – | – | – | – | – | – | – | – | IC90 [1, 25]: > 50 µg/mL; IC90 [2, 26]: > 50 µg/mL; IC90 [3, 27]: > 50 µg/mL; IC90 [4, 28]: 50 µg/mL (≈ 87.3 µM); IC90 [5, 29]: > 50 µg/mL; IC90 [6, 30]: > 50 µg/mL; IC90 [7, 31]: > 50 µg/mL; IC90 [8, 32]: 10 µg/mL (≈ 17.5 µM) |
| CCNC(=O)[C@@H](C)n1c(=O)c2c(C)c(C(=O)OCC)sc2n(C[C@H](OCCC#N)c2cc(F)ccc2OC)c1=O [Compound I-297] | > 50 | > 50 | > 50 | 10 (≈ 17.4 µM) | > 50 | > 50 | 10 (≈ 17.4 µM) | 2 (≈ 3.48 µM) | – | – | – | – | – | – | – | – | – |
| COc1ccc(F)cc1[C@H](Cn1c(=O)n([C@@H](C)C(N)=O)c(=O)c2c(C)c(-n3nccn3)sc21)OCC(C)(C)C#N [Compound I-256] | – | – | – | – | – | – | – | – | – | – | – | – | – | – | – | – | IC90 [1, 25]: > 50 µg/mL; IC90 [2, 26]: 50 µg/mL (≈ 87.8 µM); IC90 [3, 27]: 50 µg/mL (≈ 87.8 µM); IC90 [4, 28]: 50 µg/mL (≈ 87.8 µM); IC90 [5, 29]: 50 µg/mL (≈ 87.8 µM); IC90 [6, 30]: > 50 µg/mL; IC90 [7, 31]: 50 µg/mL (≈ 87.8 µM); IC90 [8, 32]: 10 µg/mL (≈ 17.6 µM) |
